Assay results as given in US10112899B2 (ViiV HEALTHCARE UK LIMITED, priority 2014, dated 2018).

Test system: HIV in the HTLV-1 transformed cell line MT-4
Test: organism not typed
Type: cell-based
Settings: MT4, 96 h, MT-4 cells; luciferase/cell titer glo readout after 96 hours; 10 point dose response

| SMILES | IC50 |
| --- | --- |
| COc1cccc(C(=O)N2Cc3c(C)c(-c4ccc(C)cc4)c([C@H](OC(C)(C)C)C(=O)O)c(C)c3C2)c1C [Example 258, (S)-2-(tert-butoxy)-2-(2-(3-methoxy-2-methylbenzoyl)-4,7-dimethyl-6-(p-tolyl)isoindolin-5-yl)acetic acid] | 15 nM |
| Cc1ccc(-c2c(C)c3c(c(C)c2[C@H](OC(C)(C)C)C(=O)O)CN(C(=O)c2cccnc2C)C3)cc1 [Example 259, (S)-2-(tert-butoxy)-2-(4,7-dimethyl-2-(2-methylnicotinoyl)-6-(p-tolyl)isoindolin-5-yl)acetic acid] | 20 nM |
| Cc1ccc(-c2c(C)c3c(c(C)c2[C@H](OC(C)(C)C)C(=O)O)CN(C(=O)c2cnccc2C)C3)cc1 [Example 260, (S)-2-(tert-butoxy)-2-(4,7-dimethyl-2-(4-methylnicotinoyl)-6-(p-tolyl)isoindolin-5-yl)acetic acid] | 15 nM |
| Cc1ccc(-c2c(C)c3c(c(C)c2[C@H](OC(C)(C)C)C(=O)O)CN(C(=O)c2ccc(F)c(F)c2)C3)cc1 [Example 261, (S)-2-(tert-butoxy)-2-(2-(3,4-difluorobenzol)-4,7-dimethyl-6-(p-tolyl)isoindolin-5-yl)acetic acid] | 4 nM |
| Cc1ccc(-c2c(C)c3c(c(C)c2[C@H](OC(C)(C)C)C(=O)O)CN(C(=O)c2cc(F)ccc2F)C3)cc1 [Example 262, (S)-2-(tert-butoxy)-2-(2-(2,5-difluorobenzoyl)-4,7-dimethyl-6-(p-tolyl)isoindolin-5-yl)acetic acid] | 5 nM |
| Cc1ccc(-c2c(C)c3c(c(C)c2[C@H](OC(C)(C)C)C(=O)O)CN(C(=O)c2cc(Cl)ccc2C)C3)cc1 [Example 263, (S)-2-(tert-butoxy)-2-(2-(5-chloro-2-methylbenzoyl)-4,7-dimethyl-6-(p-tolyl)isoindolin-5-yl)acetic acid] | 6 nM |
| Cc1ccc(-c2c(C)c3c(c(C)c2[C@H](OC(C)(C)C)C(=O)O)CN(C(=O)c2ccc(Cl)c(F)c2)C3)cc1 [Example 264, (S)-2-(tert-butoxy)-2-(2-(4-chloro-3-fluorobenzoyl)-4,7-dimethyl-6-(p-tolyl)isoindolin-5-yl)acetic acid] | 9 nM |
| Cc1ccc(-c2c(C)c3c(c(C)c2[C@H](OC(C)(C)C)C(=O)O)CN(C(=O)c2ccc4c(c2)OCO4)C3)cc1 [Example 265, (S)-2-(2-(benzo[d][1,3]dioxole-5-carbonyl)-4,7-dimethyl-6-(p-tolyl)isoindolin-5-yl)-2-(tert-butoxy)acetic acid] | 4 nM |
| Cc1ccc(-c2c(C)c3c(c(C)c2[C@H](OC(C)(C)C)C(=O)O)CN(C(=O)c2cc(F)cc(C(N)=O)c2)C3)cc1 [Example 266, (S)-2-(tert-butoxy)-2-(2-(3-carbamoyl-5-fluorobenzoyl)-4,7-dimethyl-6-(p-tolyl)isoindolin-5-yl)acetic acid] | 126 nM |
| Cc1ccc(-c2c(C)c3c(c(C)c2[C@H](OC(C)(C)C)C(=O)O)CN(C(=O)c2cc(F)cc(C(=O)O)c2)C3)cc1 [Example 267, (S)-3-(5-(tert-butoxy(carboxy)methyl)-4,7-dimethyl-6-(p-tolyl)isoindoline-2-carbonyl)-5-fluorobenzoic acid] | 3460 nM |
| Cc1ccc(-c2c(C)c3c(c(C)c2[C@H](OC(C)(C)C)C(=O)O)CN(C(=O)c2cccnc2)C3)cc1 [Example 268, (S)-2-(tert-butoxy)-2-(4,7-dimethyl-2-nicotinoyl-6-(p-tolyl)isoindolin-5-yl)acetic acid] | 14 nM |
| Cc1ccc(-c2c(C)c3c(c(C)c2[C@H](OC(C)(C)C)C(=O)O)CN(C(=O)c2cncs2)C3)cc1 [Example 269, (S)-2-(tert-butoxy)-2-(4,7-dimethyl-2-(thiazole-5-carbonyl)-6-(p-tolyl)isoindolin-5-yl)acetic acid] | 116 nM |
| Cc1ccc(-c2c(C)c3c(c(C)c2[C@H](OC(C)(C)C)C(=O)O)CN(C(=O)c2ccc(Cl)cc2)C3)cc1 [Example 270, (S)-2-(tert-butoxy)-2-(2-(4-chlorobenzoyl)-4,7-dimethyl-6-(p-tolyl)isoindolin-5-yl)acetic acid] | 4 nM |
| Cc1ccc(-c2c(C)c3c(c(C)c2[C@H](OC(C)(C)C)C(=O)O)CN(C(=O)c2cc(Cl)cc(Cl)c2)C3)cc1 [Example 271, (S)-2-(tert-butoxy)-2-(2-(3,5-dichlorobenzoyl)-4,7-dimethyl-6-(p-tolyl)isoindolin-5-yl)acetic acid] | 8 nM |
| Cc1ccc(-c2c(C)c3c(c(C)c2[C@H](OC(C)(C)C)C(=O)O)CN(C(=O)c2cocn2)C3)cc1 [Example 272, (S)-2-(tert-butoxy)-2-(4,7-dimethyl-2-(oxazole-4-carbonyl)-6-(p-tolyl)isoindolin-5-yl)acetic acid] | 86 nM |
| Cc1ccc(-c2c(C)c3c(c(C)c2[C@H](OC(C)(C)C)C(=O)O)CN(C(=O)c2ccccn2)C3)cc1 [Example 273, (S)-2-(tert-butoxy)-2-(4,7-dimethyl-2-picolinoyl-6-(p-tolyl)isoindolin-5-yl)acetic acid] | 4 nM |

| SMILES | IC50 |
| --- | --- |
| Cc1ccc(-c2c(C)c3c(c(C)c2[C@H](OC(C)(C)C)C(=O)O)CN(C(=O)c2cnc(-c4ccccc4)o2)C3)cc1 [Example 274, (S)-2-(tert-butoxy)-2-(4,7-dimethyl-2-(2-phenyloxazole-5-carbonyl)-6-(p-tolyl)isoindolin-5-yl)acetic acid] | 297 nM |
| Cc1ccc(-c2c(C)c3c(c(C)c2[C@H](OC(C)(C)C)C(=O)O)CN(C(=O)c2cccc4c2OCO4)C3)cc1 [Example 275, (S)-2-(2-(benzo[d][1,3]dioxole-4-carbonyl)-4,7-dimethyl-6-(p-tolyl)isoindolin-5-yl)-2-(tert-butoxy)acetic acid] | 5 nM |
| Cc1ccc(-c2c(C)c3c(c(C)c2[C@H](OC(C)(C)C)C(=O)O)CN(C(=O)c2ccc(Cl)c(Cl)c2)C3)cc1 [Example 276, (S)-2-(tert-butoxy)-2-(2-(3,4-dichlorobenzoyl)-4,7-dimethyl-6-(p-tolyl)isoindolin-5-yl)acetic acid] | 16 nM |
| Cc1ccc(-c2c(C)c3c(c(C)c2[C@H](OC(C)(C)C)C(=O)O)CN(C(=O)c2cc(F)c(Cl)c(Cl)c2)C3)cc1 [Example 277, (S)-2-(tert-butoxy)-2-(2-(3,4-dichloro-5-fluorobenzoyl)-4,7-dimethyl-6-(p-tolyl)isoindolin-5-yl)acetic acid] | 14 nM |
| Cc1ccc(-c2c(C)c3c(c(C)c2[C@H](OC(C)(C)C)C(=O)O)CN(C(=O)c2cc(C)c(F)c(F)c2)C3)cc1 [Example 278, (S)-2-(tert-butoxy)-2-(2-(3,4-difluoro-5-methylbenzoyl)-4,7-dimethyl-6-(p-tolyl)isoindolin-5-yl)acetic acid] | 5 nM |
| Cc1ccc(-c2c(C)c3c(c(C)c2[C@H](OC(C)(C)C)C(=O)O)CN(C(=O)c2cc(F)c(F)c(F)c2)C3)cc1 [Example 279, (S)-2-(tert-butoxy)-2-(4,7-dimethyl-6-(p-tolyl)-2-(3,4,5-trifluorobenzoyl)isoindolin-5-yl)acetic acid] | 4 nM |
| Cc1ccc(-c2c(C)c3c(c(C)c2[C@H](OC(C)(C)C)C(=O)O)CN(C(=O)c2cc(F)c(F)c(Cl)c2)C3)cc1 [Example 280, (S)-2-(tert-butoxy)-2-(2-(3-chloro-4,5-difluorobenzoyl)-4,7-dimethyl-6-(p-tolyl)isoindolin-5-yl)acetic acid] | 8 nM |
| Cc1ccc(-c2c(C)c3c(c(C)c2[C@H](OC(C)(C)C)C(=O)O)CN(C(=O)c2cc(Cl)c(F)c(Cl)c2)C3)cc1 [Example 281, (S)-2-(tert-butoxy)-2-(2-(3,5-dichloro-4-fluorobenzoyl)-4,7-dimethyl-6-(p-tolyl)isoindolin-5-yl)acetic acid] | 17 nM |
| Cc1ccc(-c2c(C)c3c(c(C)c2[C@H](OC(C)(C)C)C(=O)O)CN(C(=O)c2cc(F)c(Cl)c(F)c2)C3)cc1 [Example 282, (S)-2-(tert-butoxy)-2-(2-(4-chloro-3,5-difluorobenzoyl)-4,7-dimethyl-6-(p-tolyl)isoindolin-5-yl)acetic acid] | 7 nM |
| Cc1ccc(-c2c(C)c3c(c(C)c2[C@H](OC(C)(C)C)C(=O)O)CN(C(=O)c2ccc(C)nc2)C3)cc1 [Example 283, (S)-2-(tert-butoxy)-2-(4,7-dimethyl-2-(6-methylnicotinoyl)-6-(p-tolyl)isoindolin-5-yl)acetic acid] | 13 nM |
| COc1cccc(C(=O)N2Cc3c(C)c(-c4ccc(C)cc4)c([C@H](OC(C)(C)C)C(=O)O)c(C)c3C2)c1OC [Example 284, (S)-2-(tert-butoxy)-2-(2-(2,3-dimethoxybenzoyl)-4,7-dimethyl-6-(p-tolyl)isoindolin-5-yl)acetic acid] | 48 nM |
| Cc1ccc(-c2c(C)c3c(c(C)c2[C@H](OC(C)(C)C)C(=O)O)CN(C(=O)OCC(C)(C)C)C3)cc1 [Example 287, (S)-2-(tert-butoxy)-2-(4,7-dimethyl-2-((neopentyloxy)carbonyl)-6-(p-tolyl)isoindolin-5-yl)acetic acid] | 5 nM |
| Cc1ccc(-c2c(C)c3c(c(C)c2[C@H](OC(C)(C)C)C(=O)O)CN(C(=S)c2cccc(F)c2)C3)cc1 [Example 288, (S)-2-(tert-butoxy)-2-(2-(3-fluorophenylcarbonothioyl)-4,7-dimethyl-6-(p-tolyl)isoindolin-5-yl)acetic acid] | 15 nM |
| Cc1ccc(-c2c(C)c3c(c(C)c2[C@H](OC(C)(C)C)C(=O)O)CN(S(=O)(=O)N2CCC(F)(F)C2)C3)cc1 [Example 289, (S)-2-(tert-butoxy)-2-(2-((3,3-difluoropyrrolidin-1-yl)sulfonyl)-4,7-dimethyl-6-(p-tolyl)isoindolin-5-yl)acetic acid] | 14 nM |
| Cc1ccc(-c2c(C)c3c(c(C)c2[C@H](OC(C)(C)C)C(=O)O)CN(C(=O)NCc2ncccn2)C3)cc1 [Example 290, (S)-2-(tert-butoxy)-2-(4,7-dimethyl-2-((pyrimidin-2-ylmethyl)carbamoyl)-6-(p-tolyl)isoindolin-5-yl)acetic acid] | 2560 nM |
| Cc1ccc(-c2c(C)c3c(c(C)c2[C@H](OC(C)(C)C)C(=O)O)CN(C(=O)N2CCC(C)(C)C2)C3)cc1 [Example 291, (S)-2-(tert-butoxy)-2-(2-(3,3-dimethylpyrrolidine-1-carbonyl)-4,7-dimethyl-6-(p-tolyl)isoindolin-5-yl)acetic acid] | 5 nM |
